# Test results as given in publication PMC7377376, “Drug targeting CYP2E1 for the treatment of early-stage alcoholic steatohepatitis” (PLoS ONE, 2020).
# Assays:
# [1] = target: T1, human cytochrome P450 2E1 (Homo sapiens, UniProt P05181); assay: Steady-state p-nitrophenol oxidation, CYP2E1 inhibition in SUPERSOMES; type: biochemical
# T1 construct: purchased BD Biosciences
# Protocol: Initial velocities of the oxidation of p-nitrophenol (p-NP) to p-nitrocatechol by human cytochrome P450 2E1 were determined by measuring the absorption at 535 nm or 546 nm to determine product formation as described before.
# Alternatively, 100 mM HEPES pH 7.6 was additionally used for the enzyme kinetic measurements. A final concentration of either 50 nM enzyme in form of SUPERSOMES™ from BD Biosciences or microsomes in case of cell culture experiments was added. Reaction was initiated by adding 500 μM (enzyme kinetic measurements) or 0.1 mM (cell culture experiments) NADPH after preincubation at 37° C and stopped by adding 20% trichloroacetic acid (TCA) after 30 minutes to ensure linearity of product formation. The protein concentration for the microsomal fraction was determined by Bradford assay to calculate the results expressed as units of specific activity defined as the amount of enzyme that consumes 1 μmol/L of NADPH per hour per microgram of protein. Inhibitor stock solutions were prepared in 0.1% DMSO and diluted to a final DMSO concentration of 0.003% in the reaction mixture at most to avoid enzyme inhibition by this solvent. Inhibitory constants (Ki) were calculated by non-linear fitting of initial velocities. Maximum inhibition could not be achieved since final inhibitor concentrations were limited by DMSO.
# Supplementary file pone.0235990.s002.tif: S2 Fig CYP2E1 inhibition by data base inhibitors. To ascertain whether an imidazole containing compound is already commercially available and better suited for development as a drug can-didate, we performed a large virtual library screening of the ZINK database. We found 14,738 hits. The 5,261 commercially available compounds could be classified as 4,710 synthetic and 551 natural molecules. After docking and final scoring process, the seven best synthetic and the three best natural candidates were purchased and tested in vitro for their potential to inhibit CYP2E1 activity. Different concentrations of these compounds dissolved in DMSO were added to 110 μM p-Nitrophenol in 100 mM HEPES buffer pH 7.6 and SUPERSOMES™ with 50 nM human CYP 2E1 to calculate relative activity values. […] 20 μM corresponds to a DMSO volume of 0.02% (v/v). (TIF) Click here for additional data file.
# [2] = tested on: ethanol-fed Wistar rats; assay: Liver and serum lipid parameters of ethanol-fed rats; type: in vivo, rat; conditions: for liver cholesterol decrease compared to disease group / reduction of ethanol effect on hepatic cholesterol / reduction of ethanol effect on hepatic triglycerides / liver phospholipids decrease compared to disease group / liver triglycerides decrease compared to disease group / reduction of ethanol effect on hepatic phospholipids: liver; for reduction of ethanol effect on hepatic triglycerides: average over 0.4/4/40 mg/kg b.w. (UDCA 40 mg/kg), oral, 10 weeks; for liver phospholipids decrease compared to disease group / liver triglycerides decrease compared to disease group / reduction of ethanol effect on hepatic phospholipids / reduction of ethanol effect on serum triglycerides / serum triglycerides decrease compared to disease group: average over doses (UDCA 40 mg/kg)
# Description: A total of 68 female Wistar rats (Institute of Pharmacology and Biochemistry Breeding House, Minsk, Belarus) aged 80–90 days and weighting 180–200 g at the beginning of the experiments were used in the study. Each rat group (n = 6–8) was housed in a separate cage and had free access to the liquid diet during the full study period. Prior to the study, the animals were habituated for seven days to the cage conditions and experimental handling. The rats were maintained in a controlled experimental environment (20–25°C, 40–50% humidity, 12 h light per day, room with a 12-h light/dark cycle).
# Rats were divided into ten groups characterized by the diet and the test compounds (S1 Table). Group 1 is the first control group in which a normal solid standard diet was fed for 12 weeks. All other groups received the liquid Lieber-DeCarli (LDC) diet (S2 Table), which combines food and drink in a liquid manner. It was prepared by ssniff Spezialdiäten GmbH, Soest. The addition of maltodextrin to this diet should compensate the pure caloric effect of ethanol, whereby 1.77 g maltodextrin replaces 1 g ethanol. The calorie value of both the control and ethanol diets was the same: 35% calories from fat, 11% from carbohydrates, 18% from protein and 36% from ethanol.
# In the first two weeks rats of all groups–with the exception of group 1 –were fed with LDC diet plus maltodextrin in an appropriate amount to adapt the animals to the liquid diet. Group 2 is the second control group in which the isocaloric diet was administered for further 10 weeks until the end of the experiment. […] The test compounds I-ol, I-an and UDCA were dissolved in a 0.8% aqueous HPMC gel to obtain the appropriate concentrations: (1) I-ol with 0.4, 4 and 40 mg/kg b. w. (2) I-an with 0.4, 4 and 40 mg/kg b. w. (3) UDCA with 40 mg/kg b. w. Rats of group 2 and 3 received only HPMC as a placebo. The LDC diets were fed ad libitum and their intake per cage was controlled daily. The corresponding bottles were stored in the cages from 08:00 a. m. until 06:00 p. m. and replaced by drinking water bottles overnight until 08:00 a. m. in the next morning. Every day at the same time, the test compounds or only HPMC were administered intragastrically by oral gavage with an administration volume of 2 ml/kg b. w. After ten weeks of treatment, the rats were anesthetized with an intraperitoneal injection of a 5% pentobarbital solution and then killed by aorta scarification. Their livers were dissected and liver pieces frozen and stored in liquid nitrogen. A part of the liver was fixed for histological investigations. Blood was collected before sacrifice, centrifuged for serum preparation and finally stored in liquid nitrogen.
# The serum marker enzyme activities, alanine aminotransferase (ALT), aspartate aminotransferase (AST), alkaline phosphatase (AP) and gamma-glutamyltransferase (γ-GT) as well as triglycerides and bilirubin were measured according to manufacturer’s instructions using standard commercial kits from Lachema (PLIVA-Lachema Diagnostika, Czech Republic). Serum concentrations of leptin, adiponectin and TNF-alpha were analyzed using commercial ELISA test kits: BioCat GmbH (Heidelberg, German) for adiponectin and TNF-alpha, BioVendor Laboratory Medicine Inc. (Brno, Czech Republic) for leptin. Insulin serum concentration was determined by radioimmunoassay using the commercially available kit RIO-insulin-PG-J125 (IBOCH, Minsk, Belarus). Glucose serum concentration was determined by the Accu-Check Active blood glucose testing system from Roche-Diagnostics GmbH (Mannheim, Germany).
# Lipids were extracted with a chloroform: methanol mixture (2:1 v/v). Neutral lipids and phospholipids were separated into classes by thin-layer chromatography (TLC). Lipid fractions (triglycerides, cholesterol and its fractions) were measured in extracts from scraped spots by routine methods using the appropriate commercial kits. […]
# T1 sequence (P05181 whole entry): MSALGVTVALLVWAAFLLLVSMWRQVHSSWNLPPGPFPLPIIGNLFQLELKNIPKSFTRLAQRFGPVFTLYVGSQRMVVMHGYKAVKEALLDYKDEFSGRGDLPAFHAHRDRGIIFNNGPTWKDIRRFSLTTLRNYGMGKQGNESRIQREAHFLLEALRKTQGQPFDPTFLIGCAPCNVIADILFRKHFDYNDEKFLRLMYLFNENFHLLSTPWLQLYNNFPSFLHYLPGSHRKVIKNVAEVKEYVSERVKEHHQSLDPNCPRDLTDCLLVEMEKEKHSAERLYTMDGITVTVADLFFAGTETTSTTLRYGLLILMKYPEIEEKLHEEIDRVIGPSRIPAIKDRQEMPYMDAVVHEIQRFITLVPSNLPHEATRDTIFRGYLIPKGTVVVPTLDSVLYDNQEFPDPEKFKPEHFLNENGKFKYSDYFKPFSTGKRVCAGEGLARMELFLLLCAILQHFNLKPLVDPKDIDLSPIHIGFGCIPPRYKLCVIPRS
compound,measurement,setting,value
"CCCCCCCCCCCCn1ccnc1 [I-an, 1-Imidazolyldodecane]",Ki value (in words),[1],nanomolar range
same,inhibitory effect on CYP2E1 (in words),[1]; human CYP2E1 SUPERSOMES,lower affinity
same,liver cholesterol decrease compared to disease group,[2]; UDCA 40 mg/kg,11%
same,reduction of ethanol effect on hepatic cholesterol,[2]; UDCA 40 mg/kg,82%
same,reduction of ethanol effect on hepatic triglycerides,[2],73%
same,liver phospholipids decrease compared to disease group,[2],20%
same,liver triglycerides decrease compared to disease group,[2],41%
same,reduction of ethanol effect on hepatic phospholipids,[2],completely eliminated
same,reduction of ethanol effect on serum LDL cholesterol,"[2]; serum, UDCA 40 mg/kg",70%
same,reduction of ethanol effect on serum VLDL,"[2]; serum, UDCA 40 mg/kg",59%
same,serum LDL cholesterol decrease compared to disease group,"[2]; serum, average over doses",24%
same,serum VLDL decrease compared to disease group,"[2]; serum, average over doses",18%
same,reduction of ethanol effect on serum triglycerides,[2]; serum,83%
same,serum triglycerides decrease compared to disease group,[2]; serum,41%
OCCCCCCCCCCCCn1ccnc1 [I-ol],Ki value (in words),[1],nanomolar range
same,liver cholesterol decrease compared to disease group,[2]; UDCA 40 mg/kg,no influence
same,reduction of ethanol effect on hepatic cholesterol,[2]; UDCA 40 mg/kg,no influence
same,reduction of ethanol effect on hepatic triglycerides,[2],71%
same,liver phospholipids decrease compared to disease group,[2],13%
same,liver triglycerides decrease compared to disease group,[2],40%
same,reduction of ethanol effect on hepatic phospholipids,[2],65%
same,reduction of ethanol effect on serum VLDL,"[2]; serum, UDCA 40 mg/kg",55%
same,serum VLDL decrease compared to disease group,"[2]; serum, average over doses",17%
same,reduction of ethanol effect on serum triglycerides,[2]; serum,91%
same,serum triglycerides decrease compared to disease group,[2]; serum,44%
same,reduction of ethanol effect on serum LDL cholesterol,"[2]; serum, lowest concentration",61%
